ChEMBL document CHEMBL5154759, “Discovery of Aryl Benzoyl Hydrazide Derivatives as Novel Potent Broad-Spectrum Inhibitors of Influenza A Virus RNA-Dependent RNA Polymerase (RdRp)” (J Med Chem, 2022)
pEC50, pKd: −log10 of the molar value. The source made the active and inactive calls. The rule behind the calls is not given here.

Tests used:
Influenza A virus [1] = experiment: microbe, parasite or virus in culture; conditions: H5N1, MDCK, 48 h
Influenza A virus [2] = type: functional, organism-based; conditions: A/Anhui/1/2013 (H7N9), MDCK, 48 h
Influenza A virus [3] = type: functional, organism-based; conditions: A/Aichi/2/68 (H3N2), MDCK, 48 h
Influenza A virus [4] = type: functional, organism-based; conditions: A/Vietnam/1194/2004 (H5N1), MDCK, 48 h
Influenza A virus [5] = type: functional, organism-based; conditions: A/Puerto Rico/8/34 (H1N1), MDCK, 48 h
Influenza A virus [6] = type: functional, organism-based; conditions: H5N1, MDCK, time 12.0 hrs
Influenza A virus [7] = conditions: mdck
Influenza A virus [8] = experiment: Antiviral activity against influenza A virus (A/Puerto Rico/8/34) H1N1; type: functional, organism-based; conditions: (A/Puerto Rico/8/34) H1N1, MDCK
Influenza A virus [9] = experiment: Antiviral activity against influenza A virus (A/Vietnam/1203/2004) H5N1; type: functional, organism-based; conditions: (A/Vietnam/1203/2004) H5N1, MDCK
[10] = Elimination half life in overnight fasted po dosed Sprague-Dawley rat measured at 0.25 to 24 hrs post dose by LC-MS/MS method; type: ADME, organism-based; conditions: in vivo, time 0.25-24 hrs, read-out: beta t1/2 (converted)
Influenza A virus [11] = type: functional, A/PR/8/34; conditions: dose 20 mg/kg; route ig; time 1 hrs
[12] = Binding affinity to influenza A virus RNA-dependent RNA polymerase PB1 subunit expressed in human 293T cells assessed as dissociation constant by MST assay; conditions: hek293t
Influenza A virus [13] = type: functional; conditions: H5N1, MDCK, time 12 hrs
[14] = Bioavailability in overnight fasted iv dosed Sprague-Dawley rat measured at 0.083 to 24 hrs post dose by LC-MS/MS method; type: ADME, organism-based; conditions: in vivo, time 0.083-24 hrs
HEK293T [15] = experiment: Inhibition of influenza A/WSN/H1N1 virus RNA-dependent RNA polymerase activity in human 293 T cells co-transfected with pPOLI-Fluc assessed as reduction in luciferase activity at 0.01 uM incubated for 48 hrs by luciferase reporter gene assay relative to control; type: cell-based
Influenza A virus [16] = type: functional, organism-based; conditions: H5N1, MDCK, dose 0.03-100 µM, time 12.0 hrs, DDE = dose-dependent effect
[17] = Cmax in overnight fasted po dosed Sprague-Dawley rat plasma measured at 0.25 to 24 hrs post dose by LC-MS/MS method; type: ADME, organism-based; set-up: time upper 24 hrs, time lower 0.25 hrs, route po
Influenza A virus [18] = type: functional, organism-based; conditions: H5N1, MDCK, DDE = dose-dependent effect
Influenza A virus [19] = type: functional, organism-based; conditions: H5N1, A549, dose 0.018 µM, time 1.0 hrs
[20] = AUC(0 to infinity) in overnight fasted po dosed Sprague-Dawley rat measured at 0.25 to 24 hrs post dose by LC-MS/MS method; type: ADME, organism-based; set-up: time upper 24 hrs, time lower 0.25 hrs, route po; conditions: in vivo
[21] = Clearance in overnight fasted iv dosed Sprague-Dawley rat measured at 0.083 to 24 hrs post dose by LC-MS/MS method; type: ADME, organism-based; conditions: in vivo, time 0.083-24 hrs
[22] = AUC(0 to infinity) in overnight fasted iv dosed Sprague-Dawley rat measured at 0.083 to 24 hrs post dose by LC-MS/MS method; type: ADME, organism-based; set-up: time 0.083-24 hrs, route iv; conditions: in vivo
Influenza A virus [23] = type: functional, organism-based; conditions: H5N1, MDCK, dose 1.0 µM, time 48.0 hrs
Influenza A virus [24] = type: functional, A/PR/8/34; conditions: dose 10 mg/kg; route po; time 1 hrs
[25] = Elimination half life in overnight fasted Sprague-Dawley rat at 0.20 ml, iv measured at 0.083 to 24 hrs post dose by LC-MS/MS method; type: ADME, organism-based; conditions: in vivo, 0.2 ml, time 0.083-24 hrs, read-out: beta t1/2 (converted)
[26] = AUC(0 to t) in overnight fasted po dosed Sprague-Dawley rat measured at 0.25 to 24 hrs post dose by LC-MS/MS method; type: ADME, organism-based; set-up: time 0.25-24 hrs, route po; conditions: in vivo
HEK293T [27] = experiment: Inhibition of influenza A/WSN/H1N1 virus RNA-dependent RNA polymerase activity in human 293 T cells co-transfected with pPOLI-Fluc assessed as reduction in luciferase activity at 0.1 uM incubated for 48 hrs by luciferase reporter gene assay relative to control; type: cell-based
[28] = Tmax in overnight fasted iv dosed Sprague-Dawley rat plasma measured at 0.083 to 24 hrs post dose by LC-MS/MS method; type: ADME, organism-based; conditions: time 0.083-24 hrs
Influenza A virus [29] = type: functional, organism-based; conditions: H5N1, MDCK, dose 0.8 µM, time 12.0 hrs
[30] = Tmax in overnight fasted po dosed Sprague-Dawley rat plasma measured at 0.25 to 24 hrs post dose by LC-MS/MS method; type: ADME, organism-based; conditions: time 0.25-24 hrs
[31] = AUC(0 to t) in overnight fasted iv dosed Sprague-Dawley rat measured at 0.083 to 24 hrs post dose by LC-MS/MS method; type: ADME, organism-based; set-up: time upper 24 hrs, time lower 0.083 hrs, route iv; conditions: in vivo
[32] = Oral bioavailability in overnight fasted Sprague-Dawley rat measured at 0.25 to 24 hrs post dose by LC-MS/MS method; type: ADME, organism-based; conditions: in vivo, time 0.25-24 hrs
A549 = experiment: Induction of ROS generation in human A549 cells at 50 ug/ml incubated for 30 mins by DCFH-DA dye based fluorescence microscopy; type: functional, cell-based; conditions: dose 50.0 µg/ml
HEK293T [33] = experiment: Inhibition of influenza A/WSN/H1N1 virus RNA-dependent RNA polymerase activity in human 293 T cells co-transfected with pPOLI-Fluc assessed as reduction in luciferase activity incubated for 48 hrs by luciferase reporter gene assay; type: cell-based
HEK293T [34] = experiment: Inhibition of influenza A/WSN/H1N1 virus RNA-dependent RNA polymerase activity in human 293 T cells co-transfected with pPOLI-Fluc assessed as reduction of Fluc/Rluc ratio incubated for 48 hrs; type: cell-based; conditions: DDE = dose-dependent effect
Influenza A virus [35] = type: functional, organism-based; conditions: H5N1, MDCK
[36] = Cmax in overnight fasted iv dosed Sprague-Dawley rat plasma measured at 0.083 to 24 hrs post dose by LC-MS/MS method; type: ADME, organism-based; set-up: time upper 24 hrs, time lower 0.083 hrs, route iv
[37] = Acute toxicity in BALB/c mouse infected with influenza A virus A/PR/8/34 assessed as reduction in body weight at 2000 mg/kg, po administered 3 times per day; type: organism-based; conditions: in vivo

CCOc1ccc(C(=O)NNc2cccc(Br)c2)cc1
pEC50 (Influenza A virus [1]): < 4.00

COc1ccccc1C(=O)NNc1c(Br)cccc1Br
pEC50 (Influenza A virus [1]): < 4.00

CCCCOc1ccc(C(=O)NNc2c(Br)cccc2Br)cc1
pEC50 (Influenza A virus [1]): 6.64

CC(C)(C)c1ccc(C(=O)NNc2c(Br)cccc2Br)cc1
pEC50 (Influenza A virus [1]): 7.43

CN(C)c1ccc(C(=O)NNc2c(Br)cccc2Br)cc1
pEC50 (Influenza A virus [1]): 7.51

CCN(CC)c1ccc(C(=O)NNc2c(Br)cccc2Br)cc1
pEC50 (Influenza A virus [1]): 8.03

O=c1oc2cc(O)cc(O)c2c2ccccc12
pEC50 (Influenza A virus [2]): 5.77 | pEC50 (Influenza A virus [3]): 5.77 | pEC50 (Influenza A virus [4]): 5.77 | pEC50 (Influenza A virus [5]): 5.77

CCOc1ccc(C(=O)NNc2c(Br)cccc2Br)cc1
pEC50 (Influenza A virus [1]): 7.47

CCCc1ccc(C(=O)NNc2c(Cl)cccc2Cl)cc1
pEC50 (Influenza A virus [1]): 6.72

NC(=O)c1nc(F)cnc1O
Activity (Influenza A virus [6]): Active

O=C(NNc1c(Br)cccc1Br)c1ccc(OCC(F)(F)F)cc1
pEC50 (Influenza A virus [1]): 7.47

CCOc1ccc(C(=O)NNc2c(C)cccc2C)cc1
pEC50 (Influenza A virus [1]): 6.34

O=C(NNc1c(Br)cccc1Br)c1ccc(B(O)O)cc1
pEC50 (Influenza A virus [1]): < 4.00

Cc1cccc(C)c1NNC(=O)c1ccc(C(C)(C)C)cc1
pEC50 (Influenza A virus [1]): 6.66

O=C(NNc1c(Br)cccc1Br)c1ccc2ncccc2c1
pEC50 (Influenza A virus [1]): 4.62

CN(C)c1ccc(C(=O)NNc2c(F)cccc2F)cc1
pEC50 (Influenza A virus [1]): < 4.00

CN(C)c1ccc(C(=O)NNc2c(Cl)cccc2Cl)cc1
pEC50 (Influenza A virus [1]): 7.34

COc1ccc(C(=O)NNc2c(F)cccc2F)cc1
pEC50 (Influenza A virus [1]): < 4.00

N#Cc1ccc(C(=O)NNc2c(Br)cccc2Br)cc1
pEC50 (Influenza A virus [1]): < 4.00

O=C(NNc1c(Br)cccc1Br)c1ccc2c(c1)OCO2
pEC50 (Influenza A virus [1]): 4.89

CCOc1ccc(C(=O)NNc2ccc(Br)cc2)cc1
pEC50 (Influenza A virus [1]): < 4.00

CCOc1ccc(C(=O)NNc2ccccc2Br)cc1
pEC50 (Influenza A virus [1]): < 4.00

CCOc1ccc(C(=O)NNc2c(Cl)cccc2Cl)cc1
pEC50 (Influenza A virus [1]): 7.11

CN(C)c1ccc(C(=O)NNc2c(Br)cc(Br)cc2Br)cc1
pEC50 (Influenza A virus [1]): 6.64

Cc1ccc(C(=O)NNc2c(Cl)cccc2Cl)cc1
pEC50 (Influenza A virus [1]): 5.39

O=C(NNc1c(Br)cccc1Br)c1ccccc1
pEC50 (Influenza A virus [1]): 4.09

CCOc1ccc(C(=O)Nc2c(Br)cccc2Br)cc1
pEC50 (Influenza A virus [1]): < 4.00

CCCOc1ccc(C(=O)NNc2c(Br)cccc2Br)cc1
pEC50 (Influenza A virus [1]): 7.64

CC(=O)N[C@H]1[C@H]([C@H](O)[C@H](O)CO)OC(C(=O)O)=C[C@@H]1NC(=N)N [ZANAMIVIR]
pEC50 (Influenza A virus [1]): 7.12 | pEC50 (Influenza A virus [7]): 6.80

CCOc1ccc(C(=O)N(C)Nc2c(Cl)cccc2Cl)cc1
pEC50 (Influenza A virus [1]): < 4.00

O=C(NNc1c(Br)cccc1Br)c1ccc(F)cc1
pEC50 (Influenza A virus [1]): 4.06

COC(=O)c1ccc(C(=O)NNc2c(Br)cccc2Br)cc1
pEC50 (Influenza A virus [1]): 6.48

O=C(NNc1c(Br)cccc1Br)c1ccc2ccccc2c1
pEC50 (Influenza A virus [1]): 5.92

CCc1ccc(C(=O)NNc2c(Br)cccc2Br)cc1
pEC50 (Influenza A virus [1]): 7.11

COc1ccc(C(=O)NNc2c(Br)cccc2Br)cc1
pEC50 (Influenza A virus [1]): 5.64

O=C(NNc1c(Br)cccc1Br)c1ccc(Br)cc1
pEC50 (Influenza A virus [1]): 4.66

O=C(O)[C@H]1C2CCC(CC2)[C@@H]1Nc1nc(-c2c[nH]c3ncc(F)cc23)ncc1F [PIMODIVIR]
pEC50 (Influenza A virus [8]): 9.52 | pEC50 (Influenza A virus [9]): 10.00

O=C(NNc1c(Br)cccc1Br)c1ccc(N2CCOCC2)cc1
half-life [10]: 109 min | Activity (Influenza A virus [11]): 70% | pKd [12]: 6.45 | inhibition at 0.03 µM (Influenza A virus [13]): > 50% | F [14]: 100% | inhibition (HEK293T [15]): 60% | Activity (Influenza A virus [16]): Dde | Cmax [17]: 635 ng/mL | Activity (Influenza A virus [18]): Dde | Activity (Influenza A virus [19]): Active | AUC(0-inf) [20]: 1710 ng·h/mL | clearance [21]: 33.8 mL/min/kg | Activity (Influenza A virus [6]): Active | AUC(0-inf) [22]: 1500 ng·h/mL | Activity (Influenza A virus [23]): Active | Activity (Influenza A virus [24]): 100% | half-life [25]: 90 min | AUC(0-t) [26]: 1590 ng·h/mL | inhibition (HEK293T [27]): 91% | Tmax [28]: 4.8 min | Activity (Influenza A virus [29]): Active | Tmax [30]: 25.2 min | AUC(0-t) [31]: 1480 ng·h/mL | pEC50 (Influenza A virus [1]): 7.74 | bioavailability [32]: 32.2% | Activity (A549): Active | Activity (HEK293T [33]): Active | Activity (HEK293T [34]): Dde | Activity (Influenza A virus [35]): Active | Cmax [36]: 2520 ng/mL | Activity [37]: Toxic

O=C(NNc1c(Br)cccc1Br)c1cccnc1
pEC50 (Influenza A virus [1]): < 4.00

COc1cccc(C(=O)NNc2c(Br)cccc2Br)c1
pEC50 (Influenza A virus [1]): < 4.00

O=C(O)c1ccc(C(=O)NNc2c(Br)cccc2Br)cc1
pEC50 (Influenza A virus [1]): < 4.00

CCOc1ccc(C(=O)NNc2c(F)cccc2F)cc1
pEC50 (Influenza A virus [1]): 4.51

Nc1ccc(C(=O)NNc2c(Br)cccc2Br)cc1
pEC50 (Influenza A virus [1]): 5.11

CCOc1ccc(C(=O)NNc2c(C)cccc2Cl)cc1
pEC50 (Influenza A virus [1]): 7.00

CCc1ccc(C(=O)NNc2c(Br)cc(Br)cc2Br)cc1
pEC50 (Influenza A virus [1]): 5.36

O=C(NNc1c(Br)cccc1Br)c1ccc(-c2ccccc2)cc1
pEC50 (Influenza A virus [1]): 7.08

O=C(NNc1c(Cl)cccc1Cl)c1ccccc1
pEC50 (Influenza A virus [1]): < 4.00

CCOc1ccc(C(=O)NNc2c(Br)cc(Br)cc2Br)cc1
pEC50 (Influenza A virus [1]): 5.38

CCOc1ccc(C(=O)NNc2ccc(Br)cc2Br)cc1
pEC50 (Influenza A virus [1]): < 4.00

O=C(NNc1c(Br)cccc1Br)c1ccc(O)cc1
pEC50 (Influenza A virus [1]): < 4.00

O=C(NNc1c(Cl)cccc1Cl)c1cccs1
pEC50 (Influenza A virus [1]): < 4.00
